# Structures can show the parent of a compound that is named as a salt.
# Tests used:
# Type in all cases: cell-based
# [1] = system: A375 (Amelanotic Melanoma); experiment: Cell viability analysis (WST-1), A375; details: WST-1, OD450 nm, lower viability = better inhibition; for viability at 10 µM: Homo sapiens, A-375, 72 h, Table 3, drug 10 μM, read-out: survival rate (viability) of cancer cells, A375; for survival rate (viability) of cancer cells, A375: Table 3, drug 10 μM, 72 hours
# [2] = system: PC3 (Prostate Adenocarcinoma); experiment: Cell viability analysis (WST-1), PC3; details: WST-1, OD450 nm; for viability at 10 µM: 72 h, Table 3, drug 10 μM, read-out: survival rate (viability) of cancer cells, PC3
# [3] = system: HCT116 (Colorectal Carcinoma); experiment: Cell viability analysis (WST-1), HCT116; details: WST-1, OD450 nm; for viability at 10 µM: Homo sapiens, HCT-116, 72 h, Table 3, drug 10 μM, read-out: survival rate (viability) of cancer cells, HCT116 (WT); for survival rate (viability) of cancer cells, HCT116 (WT): Table 3, drug 10 μM, 72 hours
# [4] = system: HL-60 (Acute Promyelocytic Leukemia); experiment: Cell viability analysis (WST-1), HL-60; details: Table 3, drug 10 μM, 72 hours, WST-1, OD450 nm; for viability at 10 µM: Homo sapiens, HL-60, read-out: survival rate (viability) of cancer cells, HL-60
# [5] = system: HeLa (Cervix Adenocarcinoma); experiment: Cell viability analysis (WST-1), HeLa; details: Homo sapiens, HeLa, 72 h, Table 3, drug 10 μM, WST-1, OD450 nm, read-out: survival rate (viability) of cancer cells, HeLa
# [6] = system: MCF7 (Mammary Gland, Adenocarcinoma); experiment: Cell viability analysis (WST-1), MCF7; details: WST-1, OD450 nm; for viability at 10 µM: Homo sapiens, MCF7, 72 h, Table 3, drug 10 μM, read-out: survival rate (viability) of cancer cells, MCF7
# [7] = system: LoVo (Colorectal Adenocarcinoma); experiment: Cell viability analysis (WST-1), LoVo; details: WST-1, OD450 nm; for viability at 10 µM: Homo sapiens, LoVo, 72 h, Table 3, drug 10 μM, read-out: survival rate (viability) of cancer cells, LoVo
# [8] = system: AGS (Gastric Adenocarcinoma); experiment: Cell viability analysis (WST-1), AGS; details: WST-1, OD450 nm; for viability at 10 µM: 72 h, Table 3, drug 10 μM, read-out: survival rate (viability) of cancer cells, AGS
# cancer cell lines = experiment: Growth inhibitory effects on the panel of cancer cell lines; details: drug 10 μM, 72 hours; for Numbers of inhibitory effect on cancer cell line: count of cancer cell lines inhibited; for inhibition effect on different cancer cell lines (in words): WST-1
# [9] = system: A549 (Lung Adenocarcinoma); experiment: Cell viability analysis (WST-1), A549; details: WST-1, OD450 nm; for viability at 10 µM: Homo sapiens, A549, 72 h, Table 3, drug 10 μM, read-out: survival rate (viability) of cancer cells, A549
# [10] = system: MKN-45 (Gastric Adenocarcinoma); experiment: Cell viability analysis (WST-1), MKN-45; details: WST-1, OD450 nm; for viability at 10 µM: Homo sapiens, MKN-45, 72 h, Table 3, drug 10 μM, read-out: survival rate (viability) of cancer cells, MKN-45
# [11] = system: HepG2 (Hepatocellular Carcinoma); experiment: Cell viability analysis (WST-1), HepG2; details: WST-1, OD450 nm; for viability at 10 µM: Homo sapiens, HepG2, 72 h, Table 3, drug 10 μM, read-out: survival rate (viability) of cancer cells, HepG2
# [12] = system: TSGH-8301 (Urinary Bladder Carcinoma); experiment: Cell viability analysis (WST-1), TSGH-8301; details: WST-1, OD450 nm; for viability at 10 µM: 72 h, Table 3, drug 10 μM, read-out: survival rate (viability) of cancer cells, TSGH; for survival rate (viability) of cancer cells, TSGH: Table 3, drug 10 μM, 72 hours
# [13] = system: H1650 (Lung Adenocarcinoma); experiment: Cell viability analysis (WST-1), H1650; details: WST-1, OD450 nm; for viability at 10 µM: Homo sapiens, NCI-H1650, 72 h, Table 3, drug 10 μM, read-out: survival rate (viability) of cancer cells, H1650
Compound,viability at 10 µM [1] [%],viability at 10 µM [3] [%],viability at 10 µM [5] [%],viability at 10 µM [6] [%],viability at 10 µM [8] [%],Numbers of inhibitory effect on cancer cell line (cancer cell lines),inhibition effect on different cancer cell lines (in words) (cancer cell lines),viability at 10 µM [10] [%],viability at 10 µM [12] [%],other results
NC(=O)c1ncn([C@@H]2O[C@H](CO)[C@@H](O)[C@H]2O)c1N [Acadesine],99.1,88.7,88.4,84.7,75.4,0,significant inhibition effect,81.5,99.7,viability at 10 µM [2]: 94.8%; viability at 10 µM [4]: 110%; viability at 10 µM [7]: 80.9%; viability at 10 µM [9]: 117%; viability at 10 µM [11]: 103%
"NCCCCCC(=O)O [Aminocaproic acid (Amicar), Aminocaproic acid]",123,114,90.4,69.2,64.8,0,–,80.2,71.4,viability at 10 µM [2]: 79.6%; viability at 10 µM [4]: 93%; viability at 10 µM [7]: 91.2%; viability at 10 µM [13]: 65.4%; viability at 10 µM [9]: 70.3%
"CC(C)OC(=O)C(C)(C)Oc1ccc(C(=O)c2ccc(Cl)cc2)cc1 [Fenofibrate (Tricor, Trilipix), Fenofibrate]",159,98.9,98.3,78.1,84.1,–,–,83.1,103,viability at 10 µM [2]: 105%; viability at 10 µM [4]: 77.6%; viability at 10 µM [13]: 122%; viability at 10 µM [11]: 104%
"CC1Cc2ccccc2N1NC(=O)c1ccc(Cl)c(S(N)(=O)=O)c1 (centres unmarked) [Indapamide (Lozol), Indapamide]",64.8,80,67.9,65.5,109,0,significant inhibition effect,105,85,viability at 10 µM [2]: 76.8%; viability at 10 µM [7]: 92.7%; viability at 10 µM [13]: 86.7%; viability at 10 µM [9]: 106%; viability at 10 µM [11]: 84%
CCC(NC(C)C)C(O)c1ccc(O)c(O)c1 (centres unmarked) [Isoetharine Mesylate],97,96.1,81.6,103,96.6,0,significant inhibition effect,91,88.3,viability at 10 µM [2]: 71.6%; viability at 10 µM [7]: 100%; viability at 10 µM [13]: 91.7%; viability at 10 µM [9]: 76.7%; viability at 10 µM [11]: 76.5%
Cc1cccc(Nc2ccccc2C(=O)O)c1C [Mefenamic acid],78.7,85.9,76.1,95.3,71.1,0,significant inhibition effect,115,118,viability at 10 µM [2]: 103%; viability at 10 µM [4]: 113%; viability at 10 µM [7]: 83.3%; viability at 10 µM [13]: 73.9%; viability at 10 µM [9]: 116%
O=C(O)/C=C/c1ccc(Cn2ccnc2)cc1 [Ozagrel],74.7,102,77.7,102,98.5,0,significant inhibition effect,93.9,69.4,viability at 10 µM [4]: 118%; viability at 10 µM [7]: 80.6%; viability at 10 µM [13]: 80.6%; viability at 10 µM [9]: 77.7%; viability at 10 µM [11]: 91.2%
COc1ccc([C@H]2CNC(=O)C2)cc1OC1CCCC1 [S-(+)-Rolipram],–,–,–,–,–,0,significant inhibition effect,–,–,"survival rate (viability) of cancer cells, A375 [1]: 77.0; survival rate (viability) of cancer cells, PC3 ([2]; Table 3, drug 10 μM, 72 hours): 89.3; survival rate (viability) of cancer cells, HCT116 (WT) [3]: 86.2; survival rate (viability) of cancer cells, HL-60 [4]: 107.3; survival rate (viability) of cancer cells, MCF7 ([6]; Table 3, drug 10 μM, 72 hours): 80.4; survival rate (viability) of cancer cells, LoVo ([7]; Table 3, drug 10 μM, 72 hours): 94.1; survival rate (viability) of cancer cells, HepG2 ([11]; Table 3, drug 10 μM, 72 hours): 90.4; survival rate (viability) of cancer cells, TSGH [12]: 81.1"
CN[C@@H]1[C@H](O)[C@H](NC)[C@H]2O[C@@]3(O)C(=O)C[C@@H](C)O[C@H]3O[C@@H]2[C@H]1O [Spectinomycin hydrochloride],–,–,–,–,–,–,significant inhibition effect,–,–,–
CCOCC(O)COc1ccc(NC(=O)CC[S+](C)C)cc1 (centres unmarked) [Suplatast tosylate],–,–,–,–,–,–,significant inhibition effect,–,–,–
"CCCc1nc2c(C)cc(-c3nc4ccccc4n3C)cc2n1Cc1ccc(-c2ccccc2C(=O)O)cc1 [Telmisartan (Micardis), Telmisartan]",–,–,–,–,–,–,significant inhibition effect,–,–,–
"CS(=O)(=O)c1ccc([C@@H](O)[C@@H](CO)NC(=O)C(Cl)Cl)cc1 [Thiamphenicol (Thiophenicol), Thiamphenicol]",–,–,–,–,–,–,significant inhibition effect,–,–,–
"CC(S)C(=O)NCC(=O)O (centres unmarked) [Tiopronin (Thiola), Tiopronin]",–,–,–,–,–,–,significant inhibition effect,–,–,–
"Cc1cccc(Nc2ccncc2S(=O)(=O)NC(=O)NC(C)C)c1 [Torsemide (Demadex), Torsemide]",–,–,–,–,–,–,significant inhibition effect,–,–,–
"O=C(O[C@H]1C[C@H]2CC[C@@H](C1)[N+]21CCCC1)C(O)(c1ccccc1)c1ccccc1 [Trospium chloride (Sanctura), Trospium chloride]",–,–,–,–,–,–,significant inhibition effect,–,–,–
CCCC(CCC)C(=O)[O-].[Na+] [Valproic acid sodium salt],–,–,–,–,–,–,significant inhibition effect,–,–,–
"CCCCC(=O)N(Cc1ccc(-c2ccccc2-c2nnn[nH]2)cc1)[C@H](C(=O)O)C(C)C [Valsartan (Diovan), Valsartan]",–,–,–,–,–,–,significant inhibition effect,–,–,–
"C=C1CC[C@H](O)C/C1=C/C=C1\CCC[C@]2(C)[C@@H]([C@H](C)CCCC(C)C)CC[C@@H]12 [Vitamin D3 (Cholecalciferol), Cholecalciferol]",–,–,–,–,–,–,significant inhibition effect,–,–,–
"Cc1cn([C@H]2C[C@H](N=[N+]=[N-])[C@@H](CO)O2)c(=O)[nH]c1=O [Zidovudine (Retrovir), Zidovudine]",–,–,–,–,–,–,significant inhibition effect,–,–,–
COCCc1ccc(OCC(O)CNC(C)C)cc1 (centres unmarked) [toprolol tartrate],–,–,–,–,–,–,significant inhibition effect,–,–,–
Almotriptan malate [Almotriptan malate (Axert)],–,–,–,–,–,–,significant inhibition effect,–,–,–
Gabexate mesylate,–,–,–,–,–,0,significant inhibition effect,–,–,"survival rate (viability) of cancer cells, A375 [1]: 77.9; survival rate (viability) of cancer cells, HCT116 (WT) [3]: 114.9; survival rate (viability) of cancer cells, HL-60 [4]: 117.6; survival rate (viability) of cancer cells, AGS ([8]; Table 3, drug 10 μM, 72 hours): 75.0; survival rate (viability) of cancer cells, H1650 ([13]; Table 3, drug 10 μM, 72 hours): 69.8; survival rate (viability) of cancer cells, A549 ([9]; Table 3, drug 10 μM, 72 hours): 77.3; survival rate (viability) of cancer cells, MKN-45 ([10]; Table 3, drug 10 μM, 72 hours): 81.1; survival rate (viability) of cancer cells, TSGH [12]: 70.9"
Ibutilide fumarate,–,–,–,–,–,–,significant inhibition effect,–,–,–
